Measurements taken from publication PMC3090687 (Journal of medicinal chemistry, 2011).

Experiment: in vivo pharmacokinetics in mice, intravenous and oral
Set-up: species or system mouse

SMILES: CCC(=O)N1CCN(c2ccc(-n3c(=O)ccc4cnc5ccc(-c6cnc7ccccc7c6)cc5c43)cc2C(F)(F)F)CC1 [Compound 1, 1-(4-(4-propionylpiperazin-1-yl)-3-(trifluoromethyl)phenyl)-9-(quinolin-3-yl)benzo[h][1,6]naphthyridin-2(1H)-one]
- oral bioavailability, in words (oral administration): very limited oral bioavailability

SMILES: Nc1ccc(-c2ccc3ncc4ccc(=O)n(-c5cccc(C(F)(F)F)c5)c4c3c2)cn1 [Compound 3, 9-(6-aminopyridin-3-yl)-1-(3-(trifluoromethyl)phenyl)benzo[h][1,6]naphthyridin-2(1H)-one]
- improvement of bioavailability compared to compound 1 (oral, comparison with ref 22): approximately 10 fold
